# Results: paper PMC9268414, “Screening an In-House Isoquinoline Alkaloids Library for New Blockers of Voltage-Gated Na^+ Channels Using Voltage Sensor Fluorescent Probes: Hits and Biases” (Molecules, 2022)
# Like-named read-outs stand apart in the source and are kept apart here.
# Assays:
# [1] = system: NaV channels endogenously expressed in GH3b6 cells; experiment: FRET voltage sensor probe (VSP) assay of BTX-induced depolarization in GH3b6 cells; assay type: cell-based, rat; conditions: GH3b6 cells; for Maximum of Inhibition of BTX-evoked VSP signal / IC50: BTX 1 µM, n = 6; for Maximum of Inhibition of BTX-evoked VSP signal: % printed only; for IC50: read-out: IC50 (µM), inhibition of BTX-evoked VSP signal; for Inhibitory Effects (%) on BTX-induced VSP signal (screening): IA at 10–50 µg/mL co-incubated with 1 µM BTX
# [2] = biological target: T1, hNaV1.3 channel (Homo sapiens, UniProt Q9NY46); experiment: Automated patch-clamp, Na+ currents in HEK293-hNaV1.3 cells; assay type: cell-based; conditions: for Effect on slow-down of inactivation induced by BTX (AUC): 10 µM IA; for Effect on slow-down of inactivation induced by BTX (AUC) / Change in V1/2 of activation and inactivation vs control: hNaV1.3; for Effect on Na+ currents elicited by hNaV1.3 / Change in V1/2 of activation and inactivation vs control: 10 µM; for Effect on Na+ currents elicited by hNaV1.3: HEK293-hNaV1.3, without BTX
# T1 construct: expressed in transfected cells
# T1 sequence (Q9NY46 whole entry): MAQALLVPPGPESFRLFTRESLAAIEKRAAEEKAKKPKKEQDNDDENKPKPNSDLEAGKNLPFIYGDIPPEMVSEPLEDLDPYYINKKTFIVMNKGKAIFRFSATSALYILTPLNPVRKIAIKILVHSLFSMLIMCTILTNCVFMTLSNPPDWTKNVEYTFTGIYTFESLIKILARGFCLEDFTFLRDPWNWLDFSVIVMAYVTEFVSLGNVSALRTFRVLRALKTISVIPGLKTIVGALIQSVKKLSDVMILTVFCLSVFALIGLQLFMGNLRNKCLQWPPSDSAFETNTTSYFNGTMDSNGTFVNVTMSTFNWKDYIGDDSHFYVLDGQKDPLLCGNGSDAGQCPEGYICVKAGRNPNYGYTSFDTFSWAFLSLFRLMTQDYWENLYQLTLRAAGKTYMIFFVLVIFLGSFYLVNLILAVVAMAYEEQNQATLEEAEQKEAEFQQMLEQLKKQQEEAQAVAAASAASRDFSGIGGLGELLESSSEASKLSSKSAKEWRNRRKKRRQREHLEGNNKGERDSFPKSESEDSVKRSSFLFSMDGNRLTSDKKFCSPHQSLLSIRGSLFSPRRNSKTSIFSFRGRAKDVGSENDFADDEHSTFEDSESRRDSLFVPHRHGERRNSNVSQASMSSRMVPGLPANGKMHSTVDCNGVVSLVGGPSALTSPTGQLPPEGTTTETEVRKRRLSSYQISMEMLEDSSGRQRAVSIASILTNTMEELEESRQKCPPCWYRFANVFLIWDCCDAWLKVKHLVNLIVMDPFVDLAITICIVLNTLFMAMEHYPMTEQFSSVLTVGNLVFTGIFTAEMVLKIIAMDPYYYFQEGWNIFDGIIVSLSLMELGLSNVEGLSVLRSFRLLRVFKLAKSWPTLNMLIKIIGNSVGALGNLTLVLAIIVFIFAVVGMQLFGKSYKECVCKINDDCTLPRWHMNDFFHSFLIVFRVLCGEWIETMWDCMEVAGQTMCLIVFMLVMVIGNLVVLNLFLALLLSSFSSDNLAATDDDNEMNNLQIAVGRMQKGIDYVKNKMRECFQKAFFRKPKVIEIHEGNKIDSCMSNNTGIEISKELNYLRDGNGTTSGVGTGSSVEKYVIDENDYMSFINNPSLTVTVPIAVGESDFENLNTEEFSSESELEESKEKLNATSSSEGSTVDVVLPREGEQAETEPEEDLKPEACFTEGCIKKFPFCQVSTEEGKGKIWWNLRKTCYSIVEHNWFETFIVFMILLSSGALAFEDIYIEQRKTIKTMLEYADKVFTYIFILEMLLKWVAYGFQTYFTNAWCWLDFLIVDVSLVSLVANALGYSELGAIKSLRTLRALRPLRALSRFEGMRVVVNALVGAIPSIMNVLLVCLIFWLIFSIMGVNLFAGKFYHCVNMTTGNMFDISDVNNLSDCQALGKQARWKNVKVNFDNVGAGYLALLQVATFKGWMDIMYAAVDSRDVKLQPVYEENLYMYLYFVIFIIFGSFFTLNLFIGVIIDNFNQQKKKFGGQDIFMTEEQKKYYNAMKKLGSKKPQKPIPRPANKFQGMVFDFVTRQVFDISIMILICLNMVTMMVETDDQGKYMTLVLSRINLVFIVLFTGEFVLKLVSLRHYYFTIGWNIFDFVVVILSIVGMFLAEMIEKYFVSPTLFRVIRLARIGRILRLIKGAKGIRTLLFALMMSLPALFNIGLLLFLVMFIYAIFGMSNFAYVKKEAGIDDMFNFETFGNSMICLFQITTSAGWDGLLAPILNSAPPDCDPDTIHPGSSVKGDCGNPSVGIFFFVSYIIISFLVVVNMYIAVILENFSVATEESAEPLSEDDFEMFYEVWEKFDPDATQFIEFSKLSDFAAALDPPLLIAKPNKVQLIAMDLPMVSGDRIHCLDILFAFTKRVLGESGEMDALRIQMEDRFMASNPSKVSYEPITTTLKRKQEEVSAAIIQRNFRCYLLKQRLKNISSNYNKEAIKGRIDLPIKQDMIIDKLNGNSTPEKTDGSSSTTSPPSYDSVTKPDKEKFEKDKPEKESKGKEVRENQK
# Description: (§1) GH3b6 cells are a subclone of the GH3 pituitary cell line and were a generous gift from Dr. Françoise Macari (IGF, Montpellier, France). GH3b6 cells were cultivated from passage 14 until passage 32 at 37 °C/5% CO2 in Dubelcco’s Modified Eagle Medium (DMEM)/F12 (Lonza, Basel, Switzerland), supplemented with 10% FBS (Lonza, Basel, Switzerland), 1 mM L-glutamine, and 1 mM penicillin and streptomycin solution. For the fluorescence assay, the GH3b6 cells were seeded in black-walled, clear-bottom, 96-well, tissue culture-treated, and sterile imaging plates (Corning Hazebrouck, France), at a density of 10,000 cells per well, and incubated for 24 h before starting the experiment. The human Nav1.3 (hNav1.3) channel-expressing cell line (HEK293) used in this work was a generous gift from Massimo Mantegazza (IPMC, Nice, France). HEK293-hNaV1.3 cells were cultivated from passage 20 until passage 35 at 37 °C/5% CO2 in a DMEM high glucose medium (4.5 g/l), supplemented with 10% FBS, pyruvate, L-glutamine, and penicillin and streptomycin solution, each one at 1 mM, completed with 800 µg/mL geneticin G418. For the fluorescence assays, the cells were plated at a density of 50,000 cells per well in black-walled, clear-bottom, 96-well plates and then cultured at 37 °C and 5% CO2 for 24 h before the experiments. HEK293 stably expressing hNaV1.2 and hNaV1.6 were cultivated in the same conditions mentioned above for the HEK293-hNaV1.3 cells. For the automated patch-clamp experiments, cells were passaged from 24 to 48 h prior to the experiment and replated in the appropriate quantity to reach 50–70% confluence. For electrophysiological recordings, cells were detached with trypsin-EDTA and diluted in a culture medium. Then, the cells were centrifuged at 800 rpm for 4 min and resuspended (~300,000 cells/mL) in a patch-clamp extracellular solution.
# (§2) Whole-cell recordings were used to investigate the effects of oxostephanine, liriodenine, thalmiculine, bebeerine, and protopine on HEK293 cells stably expressing the hNav1.2, hNav1.3, and hNav1.6 channels. Automated patch-clamp recordings were performed using the SyncroPatch 384PE from Nanion (München, Germany). Chips with a single hole (n = 384, series resistance 3.93 ± 1.19 MΩ) were used for HEK293 cell recordings. Pulse generation and data collection were performed with the PatchControl384 v1.9.7 software (Nanion) and the Biomek interface (Beckman Coulter). Whole-cell recordings were conducted according to the recommended procedures of Nanion. The cells were stored in a cell hotel reservoir at 10 °C, with a shaking speed of 60 RPM. After initiating the experiment, cell catch, sealing, whole-cell formation, liquid application, recording, and data acquisition were all performed sequentially and automatically. The intracellular solution contained (in mM): 10 CsCl, 110 CsF, 10 NaCl, 10 EGTA, and 10 HEPES (pH 7.2, osmolarity 280 mOsm), and the extracellular solution contained (in mM): 60 NMDG, 80 NaCl, 4 KCl, 2 CaCl2, 1 MgCl2, 5 Glucose, and 10 HEPES (pH 7.4 (NaOH), osmolarity 280 ± 3 mOsm). Whole-cell experiments were performed at a holding potential of −100 mV at room temperature (18–22 °C). Currents were sampled at 20 kHz. For pharmacological assays, alkaloid solutions were prepared at 30 µM in the extracellular solution supplemented with 0.3% bovine serum albumin and distributed in 384-well compound plates according to a pre-established plate plan. This distribution within compound plates could not be randomized since it would then excessively complexify the methods of analyses. The working compound solution was diluted 3 times in the patch-clamp recording well by adding from 30 to 60 µL of the external solution to reach the final reported concentration and the test volume of 90 µL. The effects of IA (10 µM) or of BTX (1 µM) were measured at the end of a 10 min application time. Activation curves were built by depolarizations lasting for 2000 ms, from −130 mV to 40 mV, using 5 mV increment steps. […]
# [3] = biological target: human NaV1.3 channel (Homo sapiens, UniProt Q9NY46); experiment: ANG-2 intracellular Na+ fluorescent assay in HEK293-hNaV1.3 cells; assay type: cell-based; conditions: IA at 10 µM; BTX 3 µM; HEK293-hNaV1.3; read-out: Inhibition of BTX-induced [Na+]i elevation (ANG-2 signal)
# Chain of human NaV1.3 channel (Q9NY46 whole entry): as above
# [4] = biological target: T2, hNaV1.2 channel (Homo sapiens, UniProt Q99250); experiment: Automated patch-clamp, Na+ currents in HEK293-hNaV1.2 cells; assay type: cell-based; conditions: 10 µM; for Effect on Na+ currents elicited by hNaV1.2: HEK293-hNaV1.2; for Change in V1/2 of activation and inactivation vs control: hNaV1.2
# T2 construct: expressed in transfected cells
# T2 sequence (Q99250 whole entry): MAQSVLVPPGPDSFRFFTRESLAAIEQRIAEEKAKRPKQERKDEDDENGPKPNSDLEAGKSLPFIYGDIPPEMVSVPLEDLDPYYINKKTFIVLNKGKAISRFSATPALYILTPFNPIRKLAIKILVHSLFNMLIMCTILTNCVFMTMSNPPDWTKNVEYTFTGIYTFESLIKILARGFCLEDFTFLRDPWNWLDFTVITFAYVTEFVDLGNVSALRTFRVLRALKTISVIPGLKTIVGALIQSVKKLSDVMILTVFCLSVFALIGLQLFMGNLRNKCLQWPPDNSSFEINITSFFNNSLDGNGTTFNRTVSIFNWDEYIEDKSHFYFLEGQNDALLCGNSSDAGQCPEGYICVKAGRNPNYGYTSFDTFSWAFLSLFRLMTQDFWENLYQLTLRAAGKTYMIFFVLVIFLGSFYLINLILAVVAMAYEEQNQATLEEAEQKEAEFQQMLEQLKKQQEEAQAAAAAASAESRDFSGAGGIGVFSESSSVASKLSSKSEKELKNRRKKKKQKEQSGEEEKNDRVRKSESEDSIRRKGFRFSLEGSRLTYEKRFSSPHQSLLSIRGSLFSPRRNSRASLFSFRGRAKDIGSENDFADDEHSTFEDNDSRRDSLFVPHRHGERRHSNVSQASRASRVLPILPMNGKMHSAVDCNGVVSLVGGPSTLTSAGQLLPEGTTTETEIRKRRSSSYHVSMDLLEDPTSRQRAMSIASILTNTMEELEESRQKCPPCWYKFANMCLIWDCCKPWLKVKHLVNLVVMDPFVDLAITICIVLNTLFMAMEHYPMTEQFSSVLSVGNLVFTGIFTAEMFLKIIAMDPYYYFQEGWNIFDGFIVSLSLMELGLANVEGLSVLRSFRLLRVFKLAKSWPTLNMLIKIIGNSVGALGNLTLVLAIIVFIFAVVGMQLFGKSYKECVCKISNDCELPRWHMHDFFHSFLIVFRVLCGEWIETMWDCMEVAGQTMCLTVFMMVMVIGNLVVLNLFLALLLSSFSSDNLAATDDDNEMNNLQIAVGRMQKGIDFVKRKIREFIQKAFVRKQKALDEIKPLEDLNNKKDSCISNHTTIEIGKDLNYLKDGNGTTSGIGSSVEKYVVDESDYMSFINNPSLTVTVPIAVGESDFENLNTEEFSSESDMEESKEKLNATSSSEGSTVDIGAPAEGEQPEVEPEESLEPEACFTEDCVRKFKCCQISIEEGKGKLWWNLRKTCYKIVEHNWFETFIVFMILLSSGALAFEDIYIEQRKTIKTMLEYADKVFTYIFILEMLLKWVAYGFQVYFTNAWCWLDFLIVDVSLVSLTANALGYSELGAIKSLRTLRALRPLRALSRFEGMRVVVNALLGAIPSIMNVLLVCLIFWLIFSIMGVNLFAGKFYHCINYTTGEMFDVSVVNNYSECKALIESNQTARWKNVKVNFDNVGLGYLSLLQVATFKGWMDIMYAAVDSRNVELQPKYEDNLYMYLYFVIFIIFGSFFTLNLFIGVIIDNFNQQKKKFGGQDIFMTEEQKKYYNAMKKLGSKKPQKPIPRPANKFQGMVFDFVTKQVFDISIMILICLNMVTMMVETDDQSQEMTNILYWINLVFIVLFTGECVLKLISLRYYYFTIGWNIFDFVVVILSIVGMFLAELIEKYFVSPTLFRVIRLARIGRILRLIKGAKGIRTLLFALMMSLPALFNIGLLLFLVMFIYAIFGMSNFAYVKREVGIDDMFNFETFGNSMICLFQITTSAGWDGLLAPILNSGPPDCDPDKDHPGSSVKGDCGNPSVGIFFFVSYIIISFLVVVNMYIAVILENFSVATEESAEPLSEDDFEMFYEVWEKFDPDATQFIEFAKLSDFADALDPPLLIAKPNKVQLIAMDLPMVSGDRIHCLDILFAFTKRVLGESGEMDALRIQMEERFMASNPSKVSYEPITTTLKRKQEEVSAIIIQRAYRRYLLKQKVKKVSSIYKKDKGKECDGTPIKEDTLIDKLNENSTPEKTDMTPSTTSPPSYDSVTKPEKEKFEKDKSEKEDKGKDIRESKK
# Description: as §1, §2
# [5] = biological target: T3, hNaV1.6 channel (Homo sapiens, UniProt Q9UQD0); experiment: Automated patch-clamp, Na+ currents in HEK293-hNaV1.6 cells; assay type: cell-based; conditions: 10 µM; for Effect on Na+ currents elicited by hNaV1.6: HEK293-hNaV1.6; for Change in V1/2 of activation and inactivation vs control: hNaV1.6
# T3 construct: expressed in transfected cells
# Description: as §1, §2
# [6] = system: Na+ currents recorded in isolated cardiomyocytes; conditions: cited from earlier work
# [7] = 10 µM IA in the presence of 1 µM BTX
Compound,Maximum of Inhibition of BTX-evoked VSP signal [1],IC50 [1],Inhibitory Effects (%) on BTX-induced VSP signal (screening) [1],inhibition at 10 µM [3],Effect on Na+ currents elicited by hNaV1.2 [4],Change in V1/2 of activation and inactivation vs control [4],"Effect on current densities of hNaV1.3 at −60 mV [2, 7]",Effect on slow-down of inactivation induced by BTX (AUC) ([2]; BTX 1 µM),Effect on Na+ currents elicited by hNaV1.3 [2],Change in V1/2 of activation and inactivation vs control [2],Effect on Na+ currents elicited by hNaV1.6 [5],Change in V1/2 of activation and inactivation vs control [5],further results
"Cc1c[nH]c(C)c1C(=O)OC(C)C1=CCC23OCCN(C)CC12CC(O)C12OC4(O)CCC1(C)C(CC=C32)C4 (stereo not drawn) [BTX, batrachotoxin, reference compound]",,,,,,,,,,,,,"EC50 of BTX-induced VSP signal ratio ([1]; BTX 0.01 to 3 µM, Na+ raised to 80 mM): 0.27 ± 0.06 µM; Increase of the AUC of current traces (inactivation rate of hNaV1.3) ([2]; BTX 1 µM, data not shown): 55 fold"
"COc1cccc2c1C(=O)c1nccc3cc4c(c-2c13)OCO4 [IA14, oxostephanine]",95.78 ± 6.99%,6.11 ± 0.09 µM,84.4%,43 ± 12%,no effects,ns,significantly decreased,significantly decreased,no effects,ns,no effects,ns,IC50 ([1]; listed as Oxostephanine): 5 to 6 µM; Inhibitory Effects (%) on BTX-induced VSP signal (screening) ([1]; listed as IA24): 80.5%
"COc1ccc2cc1-c1cc(ccc1O)C[C@H]1c3cc4c(cc3CCN1C)Oc1c(OC)cc3c(c1O4)[C@H](C2)N(C)CC3 [IA31, tiliacorinine]",,,92.8%,,,,,,,,,,
"COc1ccc2c(c1OC)C(O)C1c3c(cc4c(c3-2)OCO4)CCN1C (stereo not drawn) [IA36, sukhodianine]",,,92.2%,,,,,,,,,,
"O=C1c2ccccc2-c2c3c(cc4ccnc1c24)OCO3 [IA39, liriodenine]",83.78 ± 6.59%,5 ± 0.1 µM,99.1%,50 ± 10%,no effects,ns,significantly decreased,significantly decreased,no effects,ns,no effects,ns,"IC50 ([1]; listed as liriodenine): 5 to 6 µM; Effect on V1/2 activation of hNaV1.3 [2, 7]: positively shifted; IC50, suppression of Na+ currents in isolated cardiomyocytes [6]: micromolar range"
